The values that follow come from ChEMBL document CHEMBL1132778, “Synthesis of derivatives of NK109, 7-OH benzo[c]phenanthridine alkaloid, and evaluation of their cytotoxicities and reduction-resistant properties” (Bioorg Med Chem Lett, 2000).

In general, IC50 refers to the concentration needed to halve the response being measured. High values mean a need for much substance, low ones inhibition by little substance.

The assay concerns HeLa. Briefly: Evaluated for cytotoxicity against HeLa S3 cells. The following applies: Homo sapiens. The assay is classed as functional, cell-based.
`C[n+]1cc2c(O)c(OCc3ccccc3)ccc2c2ccc3cc4c(cc3c21)OCO4` returned a concentration for half-maximal inhibition (IC50) of 17000 nM.
The figure for `CCC[n+]1cc2c(O)c(OC)ccc2c2ccc3cc4c(cc3c21)OCO4` is 400 nM; for `C=CCOc1ccc2c(c[n+](C)c3c4cc5c(cc4ccc23)OCO5)c1O` it is 710 nM.
The figure for `CCCc1c2c(O)c(OC)ccc2c2ccc3cc4c(cc3c2[n+]1C)OCO4` is 2900 nM.
As to `COc1ccc(-c2c3c(O)c(OC)ccc3c3ccc4cc5c(cc4c3[n+]2C)OCO5)cc1`, the IC50 is 16000 nM.
The figure for `CC(=O)OCCOc1ccc2c(c[n+](C)c3c4cc5c(cc4ccc23)OCO5)c1O` is 480 nM.
The figure for `CC[n+]1cc2c(O)c(OC)ccc2c2ccc3cc4c(cc3c21)OCO4` is 400 nM; for `COC(=O)COc1ccc2c(c[n+](C)c3c4cc5c(cc4ccc23)OCO5)c1O` it is 15000 nM; for `C=CC[n+]1cc2c(O)c(OC)ccc2c2ccc3cc4c(cc3c21)OCO4` it is 760 nM.
For the compound `C[n+]1cc2c(O)c(OCC(=O)O)ccc2c2ccc3cc4c(cc3c21)OCO4`, the IC50 was greater than 24000 nM.
The figure for `CCc1c2c(O)c(OC)ccc2c2ccc3cc4c(cc3c2[n+]1C)OCO4` is 11000 nM; for `CC(C)Oc1ccc2c(c[n+](C)c3c4cc5c(cc4ccc23)OCO5)c1O` it is 2400 nM.
The figure for `COc1ccc2c(c[n+](CC(=O)O)c3c4cc5c(cc4ccc23)OCO5)c1O` is greater than 24000 nM; for `COc1ccc2c(c1O)c(C)[n+](C)c1c3cc4c(cc3ccc21)OCO4` it is 2900 nM.
As to `COc1ccc2c(c1O)c(-c1ccccc1)[n+](C)c1c3cc4c(cc3ccc21)OCO4`, the IC50 worked out at 17000 nM.
The figure for `C[n+]1cc2c(O)c(OCCO)ccc2c2ccc3cc4c(cc3c21)OCO4` is 520 nM; for `COc1ccc2c(c1O)c(C1CC1)[n+](C)c1c3cc4c(cc3ccc21)OCO4` it is 6500 nM.
The figure for `C[n+]1cc2c(O)c(OCC(N)=O)ccc2c2ccc3cc4c(cc3c21)OCO4` is 1900 nM; for `COc1ccc2c(c[n+](C)c3c4cc5c(cc4ccc23)OCO5)c1O` [FAGARIDINE] it is 320 nM.
